Data on 24 molecules can be found in US20090036450A1, “PYRAZOLE COMPOUNDS AND USE THEREOF” (JAPAN TOBACCO, INC., priority 2006, published 2009).

The target of this test is T1, human liver glycogen phosphorylase (Homo sapiens, UniProt P06737).
T1 construct: made in house; host or cells: Sf9 insect cells (suspension of disrupted cells, diluted in BES buffer, not purified)
T1 sequence (P06737 1-847): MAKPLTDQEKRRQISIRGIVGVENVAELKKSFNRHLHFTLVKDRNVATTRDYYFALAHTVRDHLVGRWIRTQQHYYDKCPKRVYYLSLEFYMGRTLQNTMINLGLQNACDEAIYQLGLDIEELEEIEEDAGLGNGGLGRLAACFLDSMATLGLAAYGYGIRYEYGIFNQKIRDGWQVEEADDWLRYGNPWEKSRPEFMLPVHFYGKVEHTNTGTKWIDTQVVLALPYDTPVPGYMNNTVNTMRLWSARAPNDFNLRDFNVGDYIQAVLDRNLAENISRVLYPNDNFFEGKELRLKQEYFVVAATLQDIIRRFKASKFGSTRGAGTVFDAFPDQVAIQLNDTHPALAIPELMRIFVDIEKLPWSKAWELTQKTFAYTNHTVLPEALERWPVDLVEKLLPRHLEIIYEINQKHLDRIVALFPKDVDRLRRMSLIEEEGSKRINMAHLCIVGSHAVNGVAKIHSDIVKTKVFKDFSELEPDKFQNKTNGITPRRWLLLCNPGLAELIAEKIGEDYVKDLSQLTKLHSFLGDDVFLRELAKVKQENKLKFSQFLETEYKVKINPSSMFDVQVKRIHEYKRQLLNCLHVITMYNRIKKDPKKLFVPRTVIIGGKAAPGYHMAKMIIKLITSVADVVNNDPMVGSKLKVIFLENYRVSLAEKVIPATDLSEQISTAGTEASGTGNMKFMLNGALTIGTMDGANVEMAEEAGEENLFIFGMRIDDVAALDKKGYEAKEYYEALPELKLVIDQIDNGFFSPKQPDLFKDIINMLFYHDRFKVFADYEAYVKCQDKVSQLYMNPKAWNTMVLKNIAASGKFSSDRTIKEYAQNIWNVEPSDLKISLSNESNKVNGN
As to the kind of experiment: Liver glycogen phosphorylase activity, forward reaction system (NADPH detection at 340 nm). It is filed as biochemical. The conditions noted are these: enzyme inhibitory activity against recombinant human liver glycogen phosphorylase (Sf9 cell lysate), room temperature, 75 minutes. A digest of the protocol:
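Recombinant human liver glycogen phosphorylase from Sf9 lysate, run in forward direction with glycogen and phosphate substrate plus glucose, coupled via phosphoglucomutase/G6PDH to NADPH formation. BES buffer pH 6.8, room temperature, 75 min; A340 change minus blank gives activity. IC50 from percent inhibition vs DMSO control.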

Counter-ions that a name gives are not always drawn.

For the molecule `CCOC(=O)c1nc(C)oc1CNC(=O)c1cc(NC(=O)c2cc(F)c(F)cc2C)[nH]n1` [Example 2-1, 5-(4,5-difluoro-2-methyl-benzoylamino)-1H-pyrazole-3-carboxylic acid (4-ethoxycarbonyl-2-methyl-oxazol-5-ylmethyl)-amide], the IC50 is under 100 nM.
The figure for `O=C(NCc1ccc(C(=O)O)o1)c1cc(NC(=O)c2cc(F)c(F)cc2Cl)[nH]n1` [Example 3-1, 5-(2-chloro-4,5-difluoro-benzoylamino)-1H-pyrazole-3-carboxylic acid (2-carboxy-furan-5-ylmethyl)-amide] is under 100 nM; for `Cc1nc(C(=O)O)sc1CNC(=O)c1cc(NC(=O)c2cc(F)c(F)cc2Cl)[nH]n1` [Example 3-2, sodium 5-({[5-(2-chloro-4,5-difluoro-benzoylamino)-1H-pyrazole-3-carbonyl]-amino}-methyl)-4-methyl-thiazole-2-carboxylate] it is under 100 nM; for `O=C(O)c1cc(CNC(=O)c2cc(NC(=O)c3cc(F)c(F)cc3Cl)[nH]n2)on1` [Example 3-3, 5-(2-chloro-4,5-difluoro-benzoylamino)-1H-pyrazole-3-carboxylic acid (3-carboxy-isoxazol-5-ylmethyl)-amide] it is 100 to 300 nM.
For `Cc1nc(COC(=O)c2ccccc2)c(CNC(=O)c2cc(NC(=O)c3cc(F)c(F)cc3Cl)[nH]n2)o1` [Example 3-5, 5-(2-chloro-4,5-difluoro-benzoylamino)-1H-pyrazole-3-carboxylic acid (4-benzoyloxymethyl-2-methyl-oxazol-5-ylmethyl)-amide], the IC50 is under 100 nM.
For the molecule `Cc1nc(C(=O)O)c(CNC(=O)c2cc(NC(=O)c3cc(F)c(F)cc3Cl)[nH]n2)o1` [Example 3-6, 5-(2-chloro-4,5-difluoro-benzoylamino)-1H-pyrazole-3-carboxylic acid (4-carboxy-2-methyl-oxazol-5-ylmethyl)-amide], the IC50 was under 100 nM.
For `Cc1nc(COCC(=O)O)oc1CNC(=O)c1cc(NC(=O)c2cc(F)c(F)cc2Cl)[nH]n1` [Example 3-7, 5-(2-chloro-4,5-difluoro-benzoylamino)-1H-pyrazole-3-carboxylic acid (2-carboxymethoxymethyl-4-methyl-oxazol-5-ylmethyl)-amide], the IC50 is under 100 nM.
As to `CCN(CC)C(=O)COCc1nc(C)c(CNC(=O)c2cc(NC(=O)c3cc(F)c(F)cc3Cl)[nH]n2)o1` [Example 3-8, 5-(2-chloro-4,5-difluoro-benzoylamino)-1H-pyrazole-3-carboxylic acid (2-diethylcarbamoyl methoxymethyl-4-methyl-oxazol-5-ylmethyl)-amide], the IC50 is under 100 nM.
Turning to `Cc1nc(COCC(=O)NCc2ccccc2)oc1CNC(=O)c1cc(NC(=O)c2cc(F)c(F)cc2Cl)[nH]n1` [Example 3-9, 5-(2-chloro-4,5-difluoro-benzoylamino)-1H-pyrazole-3-carboxylic acid [2-(benzylcarbamoyl-methoxymethyl)-4-methyl-oxazol-5-ylmethyl]-amide], the IC50 was under 100 nM.
With `Cc1nc(COCC(=O)N2CCOCC2)oc1CNC(=O)c1cc(NC(=O)c2cc(F)c(F)cc2Cl)[nH]n1` [Example 3-10, 5-(2-chloro-4,5-difluoro-benzoylamino)-1H-pyrazole-3-carboxylic acid [4-methyl-2-(2-morpholin-4-yl-2-oxo-ethoxymethyl)-oxazol-5-ylmethyl]-amide] the figure was under 100 nM; with `Cc1ccc(S(=O)(=O)NCc2nc(C)c(CNC(=O)c3cc(NC(=O)c4cc(F)c(F)cc4Cl)[nH]n3)o2)cc1` [Example 3-11, 5-(2-chloro-4,5-difluoro-benzoylamino)-1H-pyrazole-3-carboxylic acid {4-methyl-2-[(toluene-4-sulfonylamino)-methyl]-oxazol-5-ylmethyl}-amide], under 100 nM.
Consider `CC(=O)NCc1nc(C)c(CNC(=O)c2cc(NC(=O)c3cc(F)c(F)cc3Cl)[nH]n2)o1` [Example 3-12, 5-(2-chloro-4,5-difluoro-benzoylamino)-1H-pyrazole-3-carboxylic acid [2-(acetylamino-methyl)-4-methyl-oxazol-5-ylmethyl]-amide dihydrochloride], for which the IC50 is under 100 nM.
For `Cc1nc(CNC(=O)c2ccc(Cl)cc2)oc1CNC(=O)c1cc(NC(=O)c2cc(F)c(F)cc2Cl)[nH]n1` [Example 3-13, 5-(2-chloro-4,5-difluoro-benzoylamino)-1H-pyrazole-3-carboxylic acid {2-[(4-chloro-benzoylamino)-methyl]-4-methyl-oxazol-5-ylmethyl}-amide], the IC50 is under 100 nM.
Take `Cc1nc(C(=O)O)oc1CNC(=O)c1cc(NC(=O)c2cc(F)c(F)cc2Cl)[nH]n1` [Example 3-14, sodium 5-({[5-(2-chloro-4,5-difluoro-benzoylamino)-1H-pyrazole-3-carbonyl]-amino}-methyl)-4-methyl-oxazole-2-carboxylate]: the IC50 is under 100 nM.
Regarding `Cc1nc(C(=O)N2CCCCC2)oc1CNC(=O)c1cc(NC(=O)c2cc(F)c(F)cc2Cl)[nH]n1` [Example 3-15, 5-(2-chloro-4,5-difluoro-benzoylamino)-1H-pyrazole-3-carboxylic acid [4-methyl-2-(piperidine-1-carbonyl)-oxazol-5-ylmethyl]-amide], the IC50 was under 100 nM.
The figure for `Cc1nc(C(=O)NCc2ccccc2)oc1CNC(=O)c1cc(NC(=O)c2cc(F)c(F)cc2Cl)[nH]n1` [Example 3-16, 5-(2-chloro-4,5-difluoro-benzoylamino)-1H-pyrazole-3-carboxylic acid (2-benzylcarbamoyl-4-methyl-oxazol-5-ylmethyl)-amide] is under 100 nM.
In the case of `Cc1nc(C(=O)OCc2ccccc2)oc1CNC(=O)c1cc(NC(=O)c2cc(F)c(F)cc2Cl)[nH]n1` [Example 3-17, 5-(2-chloro-4,5-difluoro-benzoylamino)-1H-pyrazole-3-carboxylic acid (2-benzyloxycarbonyl-4-methyl-oxazol-5-ylmethyl)-amide], the IC50 is under 100 nM.
Take `Cc1nc(CNC(=O)c2cc(NC(=O)c3cc(F)c(F)cc3Cl)[nH]n2)oc1C(=O)O` [Example 3-18, 5-(2-chloro-4,5-difluoro-benzoylamino)-1H-pyrazole-3-carboxylic acid (5-carboxy-4-methyl-oxazol-2-ylmethyl)-amide]: the IC50 was under 100 nM.
Regarding `O=C(O)Cc1nnc(CNC(=O)c2cc(NC(=O)c3cc(F)c(F)cc3Cl)[nH]n2)o1` [Example 3-19, 5-(2-chloro-4,5-difluoro-benzoylamino)-1H-pyrazole-3-carboxylic acid (5-carboxymethyl-[1,3,4]oxadiazol-2-ylmethyl)-amide], the IC50 fell in the range of 100 to 300 nM.
On to `NC(=O)Cc1nnc(CNC(=O)c2cc(NC(=O)c3cc(F)c(F)cc3Cl)[nH]n2)o1` [Example 3-20, 5-(2-chloro-4,5-difluoro-benzoylamino)-1H-pyrazole-3-carboxylic acid (5-carbamoylmethyl-[1,3,4]oxadiazol-2-ylmethyl)-amide], for which the IC50 was in the range of 100 to 300 nM.
In the case of `Cc1nc(COC(=O)c2cccs2)c(CNC(=O)c2cc(NC(=O)c3cc(F)c(F)cc3Cl)[nH]n2)o1` [Example 3-22, 5-(2-chloro-4,5-difluoro-benzoylamino)-1H-pyrazole-3-carboxylic acid [2-methyl-4-(thiophene-2-carbonyloxymethyl)-oxazol-5-ylmethyl]-amide], the IC50 is under 100 nM.
Take `Cc1nc(COC(=O)C2CCCCC2)c(CNC(=O)c2cc(NC(=O)c3cc(F)c(F)cc3Cl)[nH]n2)o1` [Example 3-23, 5-(2-chloro-4,5-difluoro-benzoylamino)-1H-pyrazole-3-carboxylic acid (4-cyclohexanecarbonyloxymethyl-2-methyl-oxazol-5-ylmethyl)-amide]: the IC50 is under 100 nM.
`Cc1nc(CO)oc1CNC(=O)c1cc(NC(=O)c2cc(F)c(F)cc2Cl)[nH]n1` [Example 3-24, 5-(2-chloro-4,5-difluoro-benzoylamino)-1H-pyrazole-3-carboxylic acid (2-hydroxymethyl-4-methyl-oxazol-5-ylmethyl)-amide hydrochloride]: the IC50 was under 100 nM.
With `Cc1nc(C(=O)N(C)Cc2ccccc2)oc1CNC(=O)c1cc(NC(=O)c2cc(F)c(F)cc2Cl)[nH]n1` [Example 3-25, 5-({[5-(2-chloro-4,5-difluoro-benzoylamino)-1H-pyrazole-3-carbonyl]-amino}-methyl)-4-methyl-oxazole-2-carboxylic acid benzyl-methyl-amide], the IC50 is under 100 nM.
